Measured values reported in ChEMBL document CHEMBL1123244, “Synthesis and aldose reductase inhibitory activity of substituted 2-oxoquinoline-1-acetic acid derivatives” (J Med Chem, 1986).
Calls of active or inactive are those of the source. The calls are words filed in the database; no cut-off is given here.

molecular target: Aldo-keto reductase family 1 member B1 (Rattus norvegicus) (UniProt P07943); experiment: Compound was tested for inhibition of crude aldose reductase obtained from rat lens, at the concentration of 100 uM; Inactive

inhibition | Structure (SMILES)
inactive | CCOC(=O)Cn1c(=O)cc(C)c2ccccc21

molecular target: Aldo-keto reductase family 1 member B1 (Rattus norvegicus) (UniProt P07943); experiment: Compound was tested for 50% inhibition of crude aldose reductase obtained from rat lens

inhibition [%] | Structure (SMILES)
33 | O=C(O)Cn1ccccc1=O

molecular target: Aldo-keto reductase family 1 member B1 (Rattus norvegicus) (UniProt P07943); experiment: Compound was tested for inhibition of crude aldose reductase obtained from rat lens, at the concentration of 100 uM

inhibition [%] | Structure (SMILES)
42 | Cc1cc(=O)n(C)c2ccccc12
9.5 | CC(=O)Oc1cccc2ccc(O)nc12
24 | Cc1cc(=O)[nH]c2ccccc12
25.8 | COc1ccc2nc(O)ccc2c1

molecular target: Aldo-keto reductase family 1 member B1 (Rattus norvegicus, UniProt P07943); experiment: Inhibition of crude aldose reductase of rat lens

IC50 [µM] | Structure (SMILES)
2.4 | O=C(O)Cn1c(=O)ccc2cc(O)ccc21
110 | Cc1cc(=O)n(CCC(=O)O)c2ccccc12
470 | Cc1cc(=O)n(C(C)C(=O)O)c2ccccc12 (stereo unspecified)
33 | CC(C(=O)O)n1c(=O)ccc2cccc(O)c21 (stereo unspecified)
1.5 | O=C(O)CN1C(=O)c2cccc3cccc(c23)C1=O [ALRESTATIN]
0.91 | COc1ccc2c(ccc(=O)n2CC(=O)O)c1
590 | COc1ccc2c(ccc(=O)n2C(C)C(=O)O)c1 (stereo unspecified)
0.45 | Cc1cc(=O)n(CC(=O)O)c2ccc([N+](=O)[O-])cc12
3.3 | O=C(O)Cn1c(=O)ccc2cccc(O)c21
6 | Cc1cc(=O)n(CC(=O)O)c2ccccc12
